Source: patent publication US20160051514A1, “METHODS FOR TREATMENT OF CARDIOMYOPATHY” (THE BRIGHAM AND WOMEN'S HOSPITAL, INC., priority 2013, published 2016)
Entries after “also recorded” stand apart in the source; their conditions may differ.

Columns and labels:
Assay type in all cases: cell-based
[1] = tested on: neonatal rat ventricular myocytes expressing 2057del2 plakoglobin; experiment: Immunofluorescence of intercalated disk proteins in neonatal rat ventricular myocytes
Description: Neonatal rat ventricular myocyte isolation and culture, stretch protocols: Primary cardiac myocyte cultures were prepared from ventricles of 1-day-old Wistar rat pups (Charles River) as previously described.^9 Cells were plated on collagen-coated plastic chamber slides at a density of […] cells/cm^2 and grown for 4 days prior to experimentation. In selected experiments, monolayers grown on collagen--coated silicone membranes were subjected to linear pulsatile stretch using a custom-designed apparatus as described in previous studies.'° Cells were stretched to 110% of resting length at a. frequency of 3 Hz for 1-4 hr in serum-free medium. In other experiments cultures were incubated with reagents including pifitlirin A (5 μM, 1 hr) and SB216763 (5 μM, 24 hr) prior to experimentation. All protocols were approved by the Institutional Animal Care and Use Committee (IACUC).
Viral transfection: A recombinant adenoviral construct expressing 2057del2-plakoglobin was created with the ViraPower Adenoviral Expression system (Invitrogen) using the pAd/CMV/V5-DEST vector through LR clonase-mediated recombination. The V5-tag was used to identify the mutant protein and distinguish it from wildtype plakoglobin. Two days post-plating, monolayers were exposed to viral solution (1:130 dilution in serum-free media, 37° C.) for 1 hr after which viral solution was replaced with complete medium in the presence or absence of reagents.
Immunofluoresence staining and microscopy in cultured cells: Cultures were rinsed in serum-free medium and fixed in 4% paraformaldehyde at room temperature for 5 min or in acetone at −20° C. for 10 min. Fixed cells were immunostained with mouse monoclonal anti-plakoglobin (Sigma), anti-N-cadhcrin (Sigma), anti-Cx43 (Millipore), anti-desmopla.kin (Fitzgerald), anti-SAP97 (Santa Cruz Biotechnology) antibodies and anti-Nav1.5 (kindly provided by Dr. Hugues Abriel, University of Bern, Switzerland) antibodies. Specific immunoreactive signal was detected by laser scanning confocal microscopy as previously described.”
Neonatal rat ventricular myocyte isolation, culture, stretch protocols: Primary cardiac myocyte cultures were prepared from ventricles of 1-day-old Wistar rat pups (Charles River) as previously described (36). Cells were plated on collagen-coated plastic chamber slides at a density of 2.4×10^5 cells/cm2 and grown for 4 days prior to experimentation. In selected experiments, monolayers grown on collagen-coated silicone membranes were subjected to linear pulsatile stretch using a custom-designed apparatus as described in previous studies (35). Cells were stretched to 110% of resting length at a frequency of 3 Hz for 1-4 hr in serum-free medium. In other experiments cultures were incubated with reagents including pifithrin A (5 μM, 1 hr) and SB216763 (0.1-10 μM for 12 or 24 hr) prior to experimentation. Vehicle controls (DMSO) were included in all experiments.
Viral transfection: A recombinant adenoviral construct expressing 2057del2 plakoglobin was created with the ViraPower Adenoviral Expression™ system (Invitrogen) using the pAd/CMV/V5-DEST vector through LR clonase-mediated recombination. The V5-tag was used to identify the mutant protein and distinguish it from wildtype plakoglobin. Two days post-plating, monolayers were exposed to viral solution (1:130 dilution in serum-free media, 37° C.) for 1 hr after which viral solution was replaced with complete medium in the presence or absence of reagents. Immunofluorescence staining and microscopy in cultured cells: Cultures were rinsed in serum-free medium and fixed in 4% paraformaldehyde at 25° C. for 5 min or in acetone at −20° C. for 10 min. Fixed cells were immunostained with mouse monoclonal anti-plakoglobin (Sigma), anti-N-cadherin (Sigma), anti-Cx43 (Millipore), anti-desmoplakin (Fitzgerald), anti-SAP97 (Santa Cruz Biotechnology) antibodies and anti-Nav1.5 antibodies (rabbit polyclonal).

[2] = tested on: neonatal rat ventricular myocytes expressing 2057del2 plakoglobin; experiment: TUNEL assay of myocyte apoptosis; conditions: cells expressing 2057del2 plakoglobin, SB216763
Text: (§1) TUNEL assay: Apoptotic cells in cultures were detected by terminal deoxynucleotidyl transferase-mediated biotinylated UTP nick end-labeling (TUNEL) assay using the ApopTag™ Fluorescein Direct in Situ Apoptosis Detection Kit (Millipore) as previously described.^9 Nuclei were stained with DAPI, and TUNEL-positive and total nuclei were counted under a laser scanning confocal microscope in 5 fields per chamber.
as §1, with “ApopTag” for “ApopTag™”, “KitTM” for “Kit”, “according to the manufacturer's instructions.” for “as previously described.^9”, “DAPI;” for “DAPI, and”, “chamber or silicone membrane in stretch experiments.” for “chamber.”

[3] = tested on: neonatal rat ventricular myocytes expressing 2057del2 plakoglobin; experiment: Cytokine expression in conditioned culture media; conditions: transfected cells
Description: (§2) Cytokine expression: Conditioned culture media (after 24 or 48 hr) from control cells and cells expressing 2057del2-plakoglobin in the presence or absence of SB216763 (5 μM, 24 hr) were collected, mixed with a cocktail of biotinylated detection antibodies and incubated with nitro-cellulose membranes spotted in duplicate with control and capture antibodies (R&D Systems). Chemiluminescent signal produced at each spot corresponded to the amount of cytokine bound. Conditioned media from control, un-transfected cultures were assayed for cytokine expression for control purposes.
as §2, with “from” for “from control cells and”, “2057del2 plakoglobin” for “2057del2-plakoglobin”, “non-transfected” for “control, un-transfected”, “as controls.” for “for control purposes.”

[4] = cells expressing 2057del2 plakoglobin, 5 μM, 24 hr
[5] = cells expressing 2057del2 plakoglobin, 5 μM, 24 hr, listed as SAB216763
[6] = cells expressing 2057del2 plakoglobin, exposure for 24 hr

With `Cn1cc(C2=C(c3ccc(Cl)cc3Cl)C(=O)NC2=O)c2ccccc21` [SB216763] the “Disease features (plakoglobin redistribution, gap junction remodeling, cytokine expression, myocyte apoptosis), summary statements” value [1] was “normalized; also recorded: reversed or prevented”, the “Gap junction remodeling / junctional Cx43 signal” value [1, 4] was “increased junctional signal for Cx43; also recorded: prevented the adverse remodeling of gap junctions” and the “Subcellular distribution of plakoglobin immunoreactive signal (junctional vs intracellular/nuclear)” value [1, 4] was “prevented the marked change in subcellular distribution of plakoglobin and accumulation of nuclear signal”. For the same molecule, the “Gap junction remodeling / junctional Cx43 signal” value [1, 5] was “blocked”, the “Subcellular distribution of plakoglobin immunoreactive signal (junctional vs intracellular/nuclear)” value [1, 5] was “prevented redistribution of plakoglobin from junctional to intracellular pools” and the Nav1.5 immunoreactive signal [1, 6] was “signal levels were restored; also recorded: reversed”. The “SAP97 immunoreactive signal at the cell surface / cell-cell junctions” value [1, 6] was “a more normal distribution was restored; also recorded: fully reversed”, the “Cx43 signal at cell-cell junctions in control (non-transfected) cultures” value ([1]; control cultures, 5 μM, 24 hr) was “increased the amount of Cx43 signal at cell-cell junctions; also recorded: also increased junctional signal for Cx43” and the “Concentration of maximal effect in restoring normal cellular distribution of plakoglobin and Cx43 signals” value ([1]; dose-response 0.1-10 μM for 12 or 24 hours, maximal at 24 hr) was 5 µM. The “Myocyte apoptosis (TUNEL-positive nuclei)” value [2] was “dramatically reduced the number of TUNEL positive nuclei; also recorded: significantly reduced the mean apoptosis index”, the “Myocyte apoptosis (TUNEL-positive nuclei)” value ([2]; listed as SAB216763) was “totally abolished” and the “Cytokine levels in culture medium, 48 hr exposure” value ([3]; 5 μM, 48 hr) was “clear reduction in cytokine levels; also recorded: restored the cytokine profile to control levels”. The “Cytokine profile in culture medium, 24 hr exposure” value ([3]; 24 hr) was “no apparent effect on cytokines; also recorded: had no apparent effect on the cytokine profile”.
